Read-outs that look alike come from different tables or passages of the source.
Key:
NF54 Kelch13^C580Y [1] = assay: Ring stage survival assay (RSA); assay type: cell-based, P. falciparum; settings: mean ± SD of six experiments
Description: (§1) In early and late trophozoites, multiple PRDX6 foci (white arrow heads) were observed adjacent to the parasite FV. DNA, Hoechst 33342 (nuclei). Scale bars: 5 µm. (B-F) Immuno-transmission electron microscopy (TEM) using monoclonal mouse anti-PRDX6 antibody. (B) Uninfected RBC showing even cytosolic staining for PRDX6. (C-F) P. falciparum-infected RBCs show co-localization of PRDX6 and hemoglobin in vesicles at the inner surface of the parasite plasma membrane in structures that resemble cytostomes (black arrows), at the FV (white arrows), or within the parasite cytosol (striped grey arrow). Scale bars: 500 nm. […] Parasites were treated at ring stage and growth to schizont stage in the same cycle ("progression") or to next generation rings ("growth") was scored by flow cytometry using DNA intercalating fluorescent dye SYBR Green I. • Figure 3 concerns the radioactive PLA2 activity assay using phosphorylated recombinant human PRDX6 in presence or absence of Darapladib. Darapladib inhibits PLA2 activity of PRDX6 with IC50 of ≈0.5µM. • Figure 4 is related to the co-treatment of ART-resistant parasites with artemisinin and Darapladib synergistically reduces parasite survival. (A) Ring stage survival assays (RSA) (Witkowski et al., Lancet Infect. Dis. 13, 1043-1049 (2013)) with Darapladib (Dar) and Dihydroartemisinin (DHA) against ART-resistant P. falciparum strains. For detailed data regarding synergism, cf. Table 1. (B) Growth/Progression assay with continuous Darapladib treatment against ART-resistant P. falciparum strains. Data are means ± SD of three independent experiments, unpaired t-tests. […] The thermal shift of the melting temperature of PRDX6 in presence of Darapladib was determined using a SYPRO orange-based differential scanning fluorimetry (DSF) assay. ΔTm > 0.5°C was considered significant. Incubation with 25µM Darapladib decreased the Tm of PRDX6 by 1.1 ± 0.2 °C.
(§2) It has been investigated whether co-treatment with Darapladib and ART could restore ART-susceptibility in the ring stage survival assay (RSA).
(§3) The survival rate for treatment with 1 µM Darapladib alone and 700 nM DHA alone was multiplied to calculate a theoretical survival rate if the effect of the combination was additive ("Calc. Additive"). The experimentally measured survival rate ("Measured") was divided by the calculated theoretical additive survival rate for the co-treatment. A ratio < 1 for Measured/Calc. indicates synergism, a ratio = 1 indicates an additive effect and a ratio > 1 indicates an antagonistic effect. Data are means ± SD of six independent experiments for NF54 C580Y and three independent experiments for 3815, unpaired t-test.

3815 strain [2] = assay: Ring stage survival assay (RSA); assay type: cell-based, P. falciparum; settings: mean ± SD of three experiments
Description: as §1, §2, §3

NF54 Kelch13^C580Y [3] = assay: Growth/Progression assay with continuous treatment; assay type: cell-based, P. falciparum; settings: continuous treatment during the complete blood stage cycle
Description: as §1, with “survival.” for “survival. (A) Ring stage survival assays (RSA) (Witkowski et al., Lancet Infect. Dis. 13, 1043-1049 (2013)) with Darapladib (Dar) and Dihydroartemisinin (DHA) against ART-resistant P. falciparum strains. For detailed data regarding synergism, cf. Table 1. (B) Growth/Progression assay with continuous Darapladib treatment against ART-resistant P. falciparum strains. Data are means ± SD of three independent experiments, unpaired t-tests.”, “Incubation with 25µM Darapladib decreased the Tm of PRDX6 by 1.1 ± 0.2 °C.” left out

3815 strain [4] = assay: Growth/Progression assay with continuous treatment; assay type: cell-based, P. falciparum; settings: continuous treatment during the complete blood stage cycle
Description: as §1, with “survival.” for “survival. (A) Ring stage survival assays (RSA) (Witkowski et al., Lancet Infect. Dis. 13, 1043-1049 (2013)) with Darapladib (Dar) and Dihydroartemisinin (DHA) against ART-resistant P. falciparum strains. For detailed data regarding synergism, cf. Table 1. (B) Growth/Progression assay with continuous Darapladib treatment against ART-resistant P. falciparum strains. Data are means ± SD of three independent experiments, unpaired t-tests.”, “Incubation with 25µM Darapladib decreased the Tm of PRDX6 by 1.1 ± 0.2 °C.” left out

P. falciparum 3D7 = assay: Blood stage progression and growth assay, flow cytometry with SYBR Green I; assay type: cell-based; settings: for IC50: Plasmodium falciparum, 3D7, n = 3 in triplicates
Description: as §1, with “1.” for “1. (B) Growth/Progression assay with continuous Darapladib treatment against ART-resistant P. falciparum strains. Data are means ± SD of three independent experiments, unpaired t-tests.”, “Incubation with 25µM Darapladib decreased the Tm of PRDX6 by 1.1 ± 0.2 °C.” left out
Darapladib was also tested in vitro for its ability to block P. falciparum blood stage growth and progression from rings to schizonts. Synchronous P. falciparum 3D7 cultures were treated at the ring stage and effects on ring to schizont development ("progression") and multiplication following completion of a full blood stage cycle ("growth") were assessed by flow cytometry using the DNA intercalating fluorescent dye SYBR Green I. […]

PRDX6 [5] = target: T1, PRDX6 (Homo sapiens, UniProt P30041); assay: ITDR-CETSA (IsoThermal Dose Response-Cellular Thermal Shift Assay); assay type: cell-based; set-up: endogenous in cells; inferred to be P. falciparum-infected human red blood cells, because host and parasite proteins were profiled together; settings: host and parasite proteins
T1 sequence (P30041 1-224): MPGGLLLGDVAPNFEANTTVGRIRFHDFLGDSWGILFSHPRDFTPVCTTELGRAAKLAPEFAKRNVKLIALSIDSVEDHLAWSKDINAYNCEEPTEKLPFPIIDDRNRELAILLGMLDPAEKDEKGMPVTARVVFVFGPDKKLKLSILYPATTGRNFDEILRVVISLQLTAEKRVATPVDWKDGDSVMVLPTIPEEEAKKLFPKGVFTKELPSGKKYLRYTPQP

PRDX6 [6] = target: T1, PRDX6; assay: Activity-based protein profiling (ABPP), competition with the probe TAMRA-FP; assay type: binding; settings: fluorescent labelling of PRDX6
Description: Darapladib has been assessed for the binding to the PLA2 active site of PRDX6 by activity-based protein profiling (ABPP) using recombinant human PRDX6 and the fluorescently tagged probe TAMRA-FP that covalently labels the serine in the PLA2 active site of PRDX6.

PRDX6 [7] = target: T1, PRDX6; assay: SYPRO orange-based differential scanning fluorimetry (DSF) assay; assay type: binding; set-up: endogenous in cells; inferred to be P. falciparum-infected human red blood cells, because host and parasite proteins were profiled together; settings: incubation with 25µM; ΔTm > 0.5°C considered significant
Description: (§4) In early and late trophozoites, multiple PRDX6 foci (white arrow heads) were observed adjacent to the parasite FV. DNA, Hoechst 33342 (nuclei). Scale bars: 5 µm. (B-F) Immuno-transmission electron microscopy (TEM) using monoclonal mouse anti-PRDX6 antibody. (B) Uninfected RBC showing even cytosolic staining for PRDX6. (C-F) P. falciparum-infected RBCs show co-localization of PRDX6 and hemoglobin in vesicles at the inner surface of the parasite plasma membrane in structures that resemble cytostomes (black arrows), at the FV (white arrows), or within the parasite cytosol (striped grey arrow). Scale bars: 500 nm. […] Parasites were treated at ring stage and growth to schizont stage in the same cycle ("progression") or to next generation rings ("growth") was scored by flow cytometry using DNA intercalating fluorescent dye SYBR Green I. • Figure 3 concerns the radioactive PLA2 activity assay using phosphorylated recombinant human PRDX6 in presence or absence of Darapladib. […] The thermal shift of the melting temperature of PRDX6 in presence of Darapladib was determined using a SYPRO orange-based differential scanning fluorimetry (DSF) assay. ΔTm > 0.5°C was considered significant. […]
Binding of the compounds of the invention to PRDX6 induces a significant shift in the melting temperature of PRDX6 which can be detected using the hydrophobic fluorescent dye SYPRO orange (Figure 5). […]

[8] = target: T2, phosphorylated recombinant human PRDX6 (Homo sapiens, UniProt P30041); assay: Radioactive PLA2 activity assay; assay type: biochemical; settings: read-out: IC50 of inhibition of PLA2 activity of PRDX6
T2 sequence (P30041 1-224): T1 sequence (P30041 1-224)
Description: as §4, with “Darapladib. Darapladib inhibits PLA2 activity of PRDX6 with IC50 of ≈0.5µM. • Figure 4 is related to the co-treatment of ART-resistant parasites with artemisinin and Darapladib synergistically reduces parasite survival.” for “Darapladib.”

Structure (SMILES): C[C@H]1[C@@H](O)O[C@@H]2O[C@@]3(C)CC[C@H]4[C@H](C)CC[C@@H]1[C@@]24OO3 [DHA, Dihydroartemisinin]
- Parasite survival, Drugs Alone, DHA (NF54 Kelch13^C580Y [1]; 700 nM DHA alone): 7.9 ± 1.7%
- Parasite survival, Drugs Alone, DHA (3815 strain [2]; 3815, 700 nM DHA alone): 7.1 ± 0.9%

Structure (SMILES): CCN(CC)CCN(Cc1ccc(-c2ccc(C(F)(F)F)cc2)cc1)C(=O)Cn1c(SCc2ccc(F)cc2)nc(=O)c2c1CCC2 [Darapladib]
- blood stage growth (NF54 Kelch13^C580Y [3]): effectively blocked blood stage growth
- blood stage growth (3815 strain [4]): effectively blocked blood stage growth
- parasite development (P. falciparum 3D7; 3D7 cultures treated at the ring stage): arrested parasite development at the trophozoite stage
- IC50 (P. falciparum 3D7; ring stage to schizont, read-out: IC50 for parasite progression): 560 nM
- IC50 (P. falciparum 3D7; whole cycle, ring to ring, read-out: IC50 for parasite growth): 760 nM
- specificity for PRDX6 (PRDX6 [5]): no other essential host or parasite protein is targeted
- binding to the PLA2 active site of PRDX6 (PRDX6 [6]): bound the PLA2 active site of PRDX6, competed with TAMRA-FP and reduced the fluorescent labelling of PRDX6
- Parasite survival, Drugs Alone, Dar 1µM (NF54 Kelch13^C580Y [1]; 1 µM Darapladib alone): 89.0 ± 8.1%
- Parasite survival, Drugs Alone, Dar 1µM (3815 strain [2]; 3815, 1 µM Darapladib alone): 94.7 ± 3.2%
- decrease of the Tm of PRDX6 (PRDX6 [7]): 1.1 ± 0.2 °C
- IC50 [8]: ~500 nM

Reference: EP4257133A1, “OXO-AZAHETEROCYCLIC DERIVATIVES FOR USE IN THE TREATMENT OF MALARIA” (Institut Pasteur, priority 2022, dated 2023)
